Data on three compounds can be found in US20200038513A1, “MODULATORS OF FAK PROTEOLYSIS AND ASSOCIATED METHODS OF USE” (ARVINAS OPERATIONS, INC., priority 2018, published 2020).

The nature of series [1]: Pharmacokinetics of intraperitoneal or intravenous injection in CD1 mice. It is filed as in vivo. Here is the method:
The pharmacokinetics of exemplary compounds 103, 107, 100, 101, and 102 was examined for intraperitoneal and intravenous administration. The desired serial concentrations of working solutions were achieved by diluting stock solution (1 mg/mL in DMSO) of analyte with methanol. In particular, 20 μL of working solutions (1, 2, 5, 10, 50, 100, 500, 1000, 2000 ng/mL) were added to 20 μL of the blank CD1 mice plasma to achieve calibration standards of 1-2000 ng/mL (1, 2, 5, 10, 50, 100, 500, 1000, 2000 ng/mL) in a total volume of 40 μL. Dose of IV and IP were diluted by 1000 fold and 10000 with methanol, 20 μL of the diluted dose solutions were added to 20 μL of the blank CD1 mice plasma to achieve dose samples. Next, 40 μL standards and 40 μL dose samples were added to 20 μL of IS (100 ng/mL) and 200 μL of acetonitrile for precipitating protein respectively. Then the samples were vortexed for 30 seconds. After centrifugation at 4 degree Celsius, 4000 rpm for 15 minutes, the supernatant was diluted 3 times with water. 10 μL of the diluted supernatant was injected into the LC/MS/MS system for quantitative analysis.
Exemplary compounds 103, 107, 100, 101, and 102 were administered intravenously (5 second injection of 10% HP-b-CD and 40 mM sodium acetate and 40 mM NaCl in water, pH4.5) or intraperitoneally (5% EtOH and 5% Solutol HS15 in D5W(ESD-2)) to 6-8 week old male CD1 mice (3 mice per treatment group for a total of 12 mice) at the time points indicated below in Table 7. The mice had free access to food and water.
Dorsal metatarsal vein samples (30 μL), except that the final sample was acquired via a heart puncture, were taken from the mice at the same the administration time points as shown in Table 7.

Series [2] has as its target T1, Fak (Homo sapiens, UniProt Q05397). The series can be described thus: Fak degradation, immunoblotting in PC3 cells. It is filed as cell-based. Conditions: PC3 cells, 24 hour treatment; for Dmax: PC-3, degradation maximum, n = 3. Here is the method: PC3 cells were cultured in F12-K (Kaighn's Modification of Ham's F-12 Medium), supplemented with 10% fetal bovine serum (FBS) and 1% penicillin-streptomycin at 37° C. and 5% CO2.
If not indicated otherwise, cells were seeded and grown to 80% confluency and were treated with compound or control for 24 hours. […] After 20 minutes the mixture was spun down at 16,000×g for 10 minutes at 4° C. to pellet insoluble materials. Protein concentration of supernatants were determined via BCA assay (Thermo Fisher) before addition of NuPAGE sample buffer containing 5% β-Me and boiling at 95° C. for 10 minutes. Equal amounts of protein were subjected to SDS-PAGE and subsequent electrophoretic transfer onto nitrocellulose membrane. […] Immunoblots were developed using enhanced chemiluminescence and visualized using a Bio-Rad Chemi-Doc MP Imaging System and quantitated with Image Lab v.5.2.1 software (Bio-Rad Laboratories). Data analysis and statistics was performed using Prism 7.0 (GraphPad).
Examination of Target Protein (Fak) Degradation.

Series [3] addresses T1, Fak. Put plainly: Kinase activity assay (Reaction Biology Corp.). The note with it: 10 μM ATP, n = 2. Also on record: purchased Reaction Biology Corp. (contract assay service). In kind it is biochemical. Here is the method: Reactions were carried out at 10 μM ATP. IC50 values were calculated using Prism 7.0 (GraphPad).

T1 sequence (Q05397 whole entry): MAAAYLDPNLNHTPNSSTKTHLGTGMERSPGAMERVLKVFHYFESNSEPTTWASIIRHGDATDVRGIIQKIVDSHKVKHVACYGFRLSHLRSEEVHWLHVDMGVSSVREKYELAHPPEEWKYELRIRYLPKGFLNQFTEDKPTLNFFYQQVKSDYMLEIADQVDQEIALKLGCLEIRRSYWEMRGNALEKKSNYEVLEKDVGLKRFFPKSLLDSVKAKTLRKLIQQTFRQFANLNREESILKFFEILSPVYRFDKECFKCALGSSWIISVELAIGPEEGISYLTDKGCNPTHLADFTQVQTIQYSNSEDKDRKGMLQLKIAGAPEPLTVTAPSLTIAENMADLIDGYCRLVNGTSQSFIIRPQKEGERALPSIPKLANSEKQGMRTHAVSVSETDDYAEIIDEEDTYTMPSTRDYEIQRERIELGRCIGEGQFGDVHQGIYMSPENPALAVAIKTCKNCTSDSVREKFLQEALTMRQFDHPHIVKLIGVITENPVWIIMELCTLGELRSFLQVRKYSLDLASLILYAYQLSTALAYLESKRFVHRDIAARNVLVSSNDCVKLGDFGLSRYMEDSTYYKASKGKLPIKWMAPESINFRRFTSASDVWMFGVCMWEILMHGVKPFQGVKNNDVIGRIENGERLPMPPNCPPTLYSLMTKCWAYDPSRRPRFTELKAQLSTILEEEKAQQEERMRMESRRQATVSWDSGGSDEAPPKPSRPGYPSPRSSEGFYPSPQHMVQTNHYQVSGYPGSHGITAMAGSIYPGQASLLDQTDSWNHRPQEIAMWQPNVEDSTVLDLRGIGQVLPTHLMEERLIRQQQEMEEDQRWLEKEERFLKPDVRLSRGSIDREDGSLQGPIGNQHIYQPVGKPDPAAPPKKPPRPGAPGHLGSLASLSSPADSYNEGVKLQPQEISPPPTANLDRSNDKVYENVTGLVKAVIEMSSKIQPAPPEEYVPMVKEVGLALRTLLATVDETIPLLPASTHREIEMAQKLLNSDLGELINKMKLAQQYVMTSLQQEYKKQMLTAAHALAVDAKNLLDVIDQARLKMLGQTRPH

Regarding “N-(2-((2-(2,6-dioxopiperidin-3-yl)-1,3-dioxoisoindolin-4-yl)oxy)ethyl)-3-(3-(4-((4-((3-(N-methylmethylsulfonamido)benzyl)amino)-5-(trifluoromethyl)pyrimidin-2-yl)amino)phenoxy)propoxy)propanamide [Compound 108]”, in series [1] (IP), the “AUClast (h * ng/mL) IP” value stood at 0.208 µg·h/mL and the “T ½ (h) IP” value stood at 1.10 h. Besides, in series [1] (IV), the “AUClast (h * ng/mL) IV” value stood at 0.0038 µg·h/mL and the “T ½ (h) IV” value was 0.058 h.

The Dmax is the largest share of the target that was removed. As a reminder, the IC50 is the concentration at which inhibition is half-maximal. A higher IC50 goes with weaker potency. `Cc1ncsc1-c1ccc(CNC(=O)[C@@H]2C[C@H](O)CN2C(=O)[C@@H](NC(=O)CCOCCOc2ccc(Nc3ncc(C(F)(F)F)c(NCc4cccc(N(C)S(C)(=O)=O)c4)n3)cc2)C(C)(C)C)cc1` [Compound 106, (2S,4S)-1-((S)-3,3-dimethyl-2-(3-(2-(4-((4-((3-(N-methylmethylsulfonamido)benzyl)amino)-5-(trifluoromethyl)pyrimidin-2-yl)amino)phenoxy)ethoxy)propanamido)butanoyl)-4-hydroxy-N-(4-(4-methylthiazol-5-yl)benzyl)pyrrolidine-2-carboxamide]: on Fak [2], the “Fak degradation / effect on Fak levels (in words)” value is listed as “no Fak degradation” and the maximal degradation (Dmax) is 0%. In addition, at Fak [3], half-maximal inhibition (IC50) required 0.0112 µM.

A word on the DC50: it is the midpoint of the concentration-degradation curve. As to `Cc1ncsc1-c1ccc(CNC(=O)[C@@H]2C[C@@H](O)CN2C(=O)[C@@H](NC(=O)CCOCCOCCOCCOCCOc2ccc(Nc3ncc(C(F)(F)F)c(NCc4cccc(N(C)S(C)(=O)=O)c4)n3)cc2)C(C)(C)C)cc1` [Compound 105, (2S,4R)-1-((S)-17-(tert-butyl)-1-(4-((4-((3-(N-methylmethylsulfonamido)benzyl)amino)-5-(trifluoromethyl)pyrimidin-2-yl)amino)phenoxy)-15-oxo-3,6,9,12-tetraoxa-16-azaoctadecan-18-oyl)-4-hydroxy-N-(4-(4-methylthiazol-5-yl)benzyl)pyrrolidine-2-carboxamide], the Dmax on Fak [2] turned out to be 91%. The DC50 on Fak [2] (half-maximal degradation concentration) came out at 0.0481 µM. Also, the 50% inhibitory concentration (IC50) against Fak [3] came out at 0.0061 ± 0.0001 µM.
